# US20060269928A1, “Compositions, methods and apparatus for supercritical fluid virus inactivation” (Aphios Corporation, priority 2005, published 2006)
# Values joined by “and” are separate entries in the source; they are usually repeats but may differ in a detail not shown here. Identical values can stand only once. Like-named read-outs stand apart in the source and are kept apart here. Marks after values point to notes of the source that are not given here.
# Experiments:
# HIV-1 p24 = details: 3,000 psig, 22 °C, single-stage; for Δp24 [% Change]: versus t & T control
# HIV-1Δtat-rev = details: 3,000 psig, 22 °C, single-stage; for −Log10 Inactivation: versus time and temperature control; for Log10 TCID50/ml (CFI-treated): virus supernatant diluted 1:10 in RPMI
# TGE = type: cell-based
# [1] = test system: Bovine Diarrhea Virus (BVD); type: cell-based
# Hepatitis A (HAV) virus = type: cell-based
# Human Adenovirus, Type 5 = type: cell-based
# parvovirus B19 [2] = experiment: B19 DNA titre of CFI-treated plasma samples; parameters: species or system human parvovirus B19; details: 206 bars, 4 ml/min
# Experimental: The conditions of different experiments performed for NIBSC, London, England with parvovirus B19-spiked in human plasma samples free of B19 antibodies are recorded in Table 16. […] Five or six samples were produced in each of the six experiments. A 2.5 ml aliquot of the feed was taken at the start of the treatment and stored at 4° C. during the run (named “before”) and a second 2.5 ml sample was placed at the same temperature as the SCoNCF system for the same duration as a control (named “time and temperature”). Once the system (isobaric chamber, connecting lines, valves and gauges) was pressurized with the supercritical fluid, the sample was pumped through the isobaric chamber at the rate of 4 ml/min. […] Finally, the system was depressurized to atmospheric pressure (1.01 bars).
# Sindbis = type: cell-based
# Reovirus = type: cell-based
# [3] = test system: vesicular stomatitis virus (VSV); type: cell-based; details: for −log10 Kill: 3,000 psig, 50 °C, single stage, matrix FBS; for −log10 reduction: 4,000 psig, <1 min
# parvovirus B19 [4] = experiment: B19 infectivity assay of CFI-treated plasma samples; type: cell-based, human parvovirus B19; details: 206 bars; for Infectious Units per ml, CFI-Treated Samples: 4 ml/min
# Poliovirus = type: cell-based; details: 3,000 psig, 50 °C, single stage, matrix FBS
# [5] = test system: encephalomyocarditis (EMC) virus; type: cell-based
# [6] = test system: murine leukemia virus (MuLV); experiment: SCoNCF CFI inactivation of murine leukemia virus in laminar flow injection unit; type: cell-based, murine-C retrovirus (MuLV); details: 2,000 psig, 22 °C, <1 min
# [7] = Expt 01: 50 °C, 2 stages, human plasma
# [8] = Expt 02/04: 25 °C, 1 stage, volumetric average of two samples
compound,measurement,setting,value
"CCC [C3H8, Propane]",p24 [CFI-treated],HIV-1 p24,175 ng/mL
same,Δp24 [% Change],HIV-1 p24,+20%
same,−Log10 Inactivation,HIV-1Δtat-rev,0.9
same,Log10 TCID50/ml (CFI-treated),HIV-1Δtat-rev,4.1
"O=C=O [CO2, carbon dioxide]",p24 [CFI-treated],HIV-1 p24,15 ng/mL
same,Δp24 [% Change],HIV-1 p24,+7%
same,−Log10 Inactivation,HIV-1Δtat-rev,>3.7
same,Log10 TCID50/ml (CFI-treated),HIV-1Δtat-rev,undetected
"FC(F)Cl [FREON-22, hydrodifluorochloromethane]",−log10 Kill,TGE,>2.5 and >2.6
same,−log10 Kill,[1],2.3
same,−log10 Kill,Hepatitis A (HAV) virus,1.3 and 1.0
same,−log10 Kill,"Human Adenovirus, Type 5",>5.3 and >5.1
same,p24 [CFI-treated],HIV-1 p24,112 ng/mL
same,Δp24 [% Change],HIV-1 p24,−7%
same,"B19 DNA Titre (IU/ml), CFI-Treated Samples",parvovirus B19 [2]; [7],5 × 10^10 IU/ml
same,"B19 DNA Titre (IU/ml), CFI-Treated Samples",parvovirus B19 [2]; [8],2 × 10^11* IU/ml
same,−log10 Kill,Sindbis,>6.5
same,−log10 Kill,Reovirus,0.9 and 1.0
same,−log10 Kill,[3],>6.5 and >6.6
same,−log10 Kill,[3]; listed as Freon-22,> 6.6 and > 6.5
same,change in infectivity titer compared with the untreated sample,"parvovirus B19 [4]; 50 °C, two-stage laminar flow CFI unit",~2 log10
same,"Infectious Units per ml, CFI-Treated Samples",parvovirus B19 [4]; [7],5 × 10^3 Infectious Units per ml
same,"Infectious Units per ml, CFI-Treated Samples",parvovirus B19 [4]; [8],2 × 10^5* Infectious Units per ml
same,−log10 Kill,Poliovirus,4.1 and 4.2
same,−log10 Kill,Poliovirus; listed as Freon-22,4.1 and 4.2
same,EMC inactivated on the average,[5],~6 logs
same,EMC inactivation on the average,[5],5.7 logs
same,increase of inactivation for every 10 °C increase in temperature,[5],~1 log
same,−Log10 Inactivation,HIV-1Δtat-rev,>5.1
same,Log10 TCID50/ml (CFI-treated),HIV-1Δtat-rev,undetected
"FC(F)F [Fr-23, trifluoromethane]",p24 [CFI-treated],HIV-1 p24,20 ng/mL
same,Δp24 [% Change],HIV-1 p24,+43%
same,"B19 DNA Titre (IU/ml), CFI-Treated Samples",parvovirus B19 [2]; [8],2.5 × 10^10* IU/ml
same,"Infectious Units per ml, CFI-Treated Samples",parvovirus B19 [4]; [8],1.7 × 10^6* Infectious Units per ml
same,EMC inactivated on the average,[5],~3 logs
same,−Log10 Inactivation,HIV-1Δtat-rev,>3.7
same,Log10 TCID50/ml (CFI-treated),HIV-1Δtat-rev,undetected
FC(Cl)C(F)(F)F (stereo not drawn) [Fr-124],−log10 Kill,[5],0.5 and 0.4
N#N [N2],p24 [CFI-treated],HIV-1 p24,143 ng/mL
same,Δp24 [% Change],HIV-1 p24,+34%
same,−Log10 Inactivation,HIV-1Δtat-rev,>5.1
same,Log10 TCID50/ml (CFI-treated),HIV-1Δtat-rev,undetected
"[N-]=[N+]=O [NITROUS OXIDE, nitrous oxide]",p24 [CFI-treated],HIV-1 p24,70 ng/mL
same,Δp24 [% Change],HIV-1 p24,+25%
same,−log10 reduction,"[3]; 40 °C, 1 stage",2.5
same,−log10 reduction,"[3]; 40 °C, 2 stages",>5.5
same,inactivation,"[3]; 5,000 psig, 22 °C",~2 logs
same,average inactivation,"[3]; 5,000 psig, 40 °C",4 logs
same,−log10 reduction,[6]; 1 stage,2.3 and 2.0
same,−log10 reduction,"[6]; 1 stage, listed as nitrous oxide",about 2
same,−log10 reduction,[6]; 2 stages,>5.5
same,−log10 reduction,"[6]; 2 stages, listed as nitrous oxide",greater than 5.5
same,−Log10 Inactivation,HIV-1Δtat-rev,>2.8
same,Log10 TCID50/ml (CFI-treated),HIV-1Δtat-rev,undetected
